row,Compound,melting point
1,CCCC1(C(=O)c2cc(F)c(N)c(Cl)c2)CCNC1 (centres unmarked),65 to 67 °C
2,O=C(c1ccc2[nH]ncc2c1)C1(CC2CC2)CCCN1 (centres unmarked),291 to 292 °C
3,O=C(c1ccc2[nH]ncc2c1)C1(CC2CCCC2)CCCN1 (centres unmarked),> 300 °C
4,CCCC1(C(=O)c2ccc(Cl)c(Cl)c2)CCN1 (centres unmarked),252.6 to 254 °C
5,CCCC1(C(=O)c2ccc(Cl)c(Cl)c2)CNC1,59 to 60 °C
6,COCC1(C(=O)c2ccc3[nH]ccc3c2)CCNC1 (centres unmarked),59.1 to 61 °C

# Further lines, results first:
row,melting point,Compound
1,166 to 167 °C,CC(C)CC1(C(=O)c2cc(F)c(Cl)c(Cl)c2)CCNCC1
2,265.6 to 266.9 °C,CCCC1(C(=O)c2ccc(O)c(Cl)c2)CCCNC1 (centres unmarked)
